# Experimental data: patent US8840927B2, “Method of making anti-microbial polymeric surfaces” (Covalon Technologies Inc., priority 2001, dated 2014)
# Assay: Aqueous solubility of photo-initiator
# Format: physicochemical
# Method: Pre-weighed silicone disks (approximately 0.7 cm in diameter, 0.2 cm in thickness) or cylindrical sections (approximately 0.5 cm in diameter, 1 cm in length) were incubated in a methanol solution of photo-initiator (BPB; or p-benzoyl benzoic acid, BBA) for 1 hour followed by air drying at about 40° C. for 2 hours. Samples were then suspended in vials containing 3 mL of aqueous monomer solution. When required, monomer solutions were saturated with BPB. The aqueous solubility of BPB was 4 μg/mL. All solutions were filtered through 0.22 μm pore filters prior to being flushed with nitrogen for 15 min. Vials were sealed with rubber septa and placed 2.5 cm beneath a pair of UVA bulbs (15 W ea.). Radiation intensity at the sample site was 3.8 mW/cm2 as determined by UV actinometry (16). After completion of the graft polymerization reaction, samples were briefly washed under running water with occasional scrubbing to remove any signs of adsorbed homopolymer. The remaining non-grafted material was removed by overnight incubation in 50% ethanol followed by a 4 hour incubation in water. Samples were dried in a 60° C. oven for 16 hours before their weights were determined using a microbalance. Quadruplicate samples of each treatment were analysed in all experiments.
compound,measurement,value
"CC(C)(C)OOC(=O)c1ccc(C(=O)c2ccccc2)cc1 [BPB, p-benzoyl tert-butylperbenzoate]",aqueous solubility,4 µg/mL
